Results reported in paper PMC8000041, “New Insights into the Metabolism of the Flavanones Eriocitrin and Hesperidin: A Comparative Human Pharmacokinetic Study” (Antioxidants, 2021).

Assay: Urinary excretion of flavanone-derived metabolites after single intake of lemon or orange extract (UPLC-ESI-QTOF-MS)
Assay type: in vivo, human
Conditions: lemon extract (3.1 g, 260 mg eriocitrin), urine fraction 0-4 h, mean ± SD
Description: Secondary endpoints involved the evaluation of post-prandial changes in several biomarkers dealing with metabolism, inflammation, and oxidative stress after a high-fat-high-sugars meal. The design was a randomized pharmacokinetic, double-blind, crossover, single-dose trial consisted of 2 test-phases. The volunteers were randomly allocated into two groups using a computerized random number list. Each group consumed one of the citrus extracts by following a test-phase that lasted for 1 day for blood sampling and urine collection, a 2-week washout period between each test phase, and crossover before consuming the other extract. The volunteers were instructed to avoid the consumption of flavanone-containing products, from a list provided by the researchers, for 1 week before the study and during the wash-out phase (citrus fruit juices, tomatoes, tomato-based sauces (like ‘ketchup’), peppers, almonds, etc.). […] The 3 capsules provided a total of 1.95 g orange extract, containing 260 mg hesperidin, and 3.1 g lemon extract, containing 260 mg eriocitrin. […] Untreated urine samples were aliquoted and frozen at −80 °C for up to 4 weeks until analyses, avoiding freeze-thaw cycles to avoid metabolites’ deconjugation. Moreover, three measurements of blood pressure and heart rate were taken before each time-point of blood withdrawal. […] A previously validated method for analyzing phenolic metabolites in biological samples, including flavanone-derived metabolites, was used. […] After centrifugation at 14,000× g for 10 min at 4 °C, the supernatant was evaporated in a speed vacuum concentrator. Finally, samples were re-suspended in 100 µL of methanol, filtered through a 0.22 µm cellulose filters before analysis by UPLC- ESI-QTOF-MS. […] A targeted screening strategy was applied to identify metabolites that could be present after consuming the citrus extracts. Twenty-eight possible compounds were browsed in all the samples. The list of compounds included the polyphenols present in the extracts, with particular focus on the flavanone rutinosides hesperidin and eriocitrin, their respective aglycones hesperetin, and eriodictyol, as well as their derived phase-II conjugates (glucuronides, sulfates, sulfoglucuronides, etc.). The exact mass of each proposed compound was extracted using an extraction window of 0.01 m/z. The metabolites hesperetin 7-O-glucuronide, hesperetin 3′-O-glucuronide, hesperetin 3-O-sulfate, naringenin 4′-O-glucuronide, and naringenin 7′-O-glucuronide were quantified with their corresponding standards. […] The parent phenolic compounds were quantified with their corresponding standards. In the case of some relevant conjugated metabolites, which standards were not available (eriodictyol and homoeriodictyol conjugates), their quantification was achieved by using relative response factors (RRFs) as previously described. Briefly, RRFs are useful to check the different responses of metabolites in the mass spectrometer vs. their UV signal. While the ionization response of free vs. conjugated forms is usually very different, their UV signal response is quite similar. To this purpose, we injected in a HPLC-DAD-ESI-Q (MS) the plasma samples (n = 5) with the highest concentrations of those conjugated metabolites. Concentrations were calculated by integrating the area from their corresponding UV peaks and compared with the UV peak area of a known concentration of their corresponding available parent compounds (eriodictyol and homoeriodictyol). The concentrations calculated were used to compare the MS response for each conjugated-aglycone pair.

SMILES	Urinary excretion F1
COc1ccc(C2CC(=O)c3c(O)cc(O)cc3O2)cc1OC1OC(C(=O)O)C(O)C(O)C1O (stereo not drawn) [M8, Hesperetin 3′-O-glucuronide]	2.1 ± 2.3 µg/mg creatinine

Same assay, conditions: lemon extract, sum of fractions F1-F4 (24 h), mean ± SD

SMILES	Urinary excretion Total F
COc1ccc(C2CC(=O)c3c(O)cc(O)cc3O2)cc1OC1OC(C(=O)O)C(O)C(O)C1O (stereo not drawn) [M8, Hesperetin 3′-O-glucuronide]	24.2 ± 23.7 µg/mg creatinine

Same assay, conditions: lemon extract, urine fraction 4-8 h, mean ± SD

SMILES	Urinary excretion F2
COc1ccc(C2CC(=O)c3c(O)cc(O)cc3O2)cc1OC1OC(C(=O)O)C(O)C(O)C1O (stereo not drawn) [M8, Hesperetin 3′-O-glucuronide]	10.7 ± 11.3 µg/mg creatinine

Same assay, conditions: lemon extract, urine fraction 8-10 h, mean ± SD

SMILES	Urinary excretion F3
COc1ccc(C2CC(=O)c3c(O)cc(O)cc3O2)cc1OC1OC(C(=O)O)C(O)C(O)C1O (stereo not drawn) [M8, Hesperetin 3′-O-glucuronide]	9.2 ± 7.7 µg/mg creatinine

Same assay, conditions: lemon extract, urine fraction 10-24 h, mean ± SD

SMILES	Urinary excretion F4
COc1ccc(C2CC(=O)c3c(O)cc(O)cc3O2)cc1OC1OC(C(=O)O)C(O)C(O)C1O (stereo not drawn) [M8, Hesperetin 3′-O-glucuronide]	2.2 ± 2.4 µg/mg creatinine

Same assay, conditions: orange extract (1.95 g, 260 mg hesperidin), urine fraction 0-4 h, mean ± SD

SMILES	Urinary excretion F1
COc1ccc(C2CC(=O)c3c(O)cc(O)cc3O2)cc1OC1OC(C(=O)O)C(O)C(O)C1O (stereo not drawn) [M8, Hesperetin 3′-O-glucuronide]	0.5 ± 1.5 µg/mg creatinine

Same assay, conditions: orange extract, sum of fractions F1-F4 (24 h), mean ± SD

SMILES	Urinary excretion Total F
COc1ccc(C2CC(=O)c3c(O)cc(O)cc3O2)cc1OC1OC(C(=O)O)C(O)C(O)C1O (stereo not drawn) [M8, Hesperetin 3′-O-glucuronide]	9.9 ± 18.9 µg/mg creatinine

Same assay, conditions: orange extract, urine fraction 4-8 h, mean ± SD

SMILES	Urinary excretion F2
COc1ccc(C2CC(=O)c3c(O)cc(O)cc3O2)cc1OC1OC(C(=O)O)C(O)C(O)C1O (stereo not drawn) [M8, Hesperetin 3′-O-glucuronide]	4.3 ± 11.5 µg/mg creatinine

Same assay, conditions: orange extract, urine fraction 8-10 h, mean ± SD

SMILES	Urinary excretion F3
COc1ccc(C2CC(=O)c3c(O)cc(O)cc3O2)cc1OC1OC(C(=O)O)C(O)C(O)C1O (stereo not drawn) [M8, Hesperetin 3′-O-glucuronide]	3.3 ± 4.2 µg/mg creatinine

Same assay, conditions: orange extract, urine fraction 10-24 h, mean ± SD

SMILES	Urinary excretion F4
COc1ccc(C2CC(=O)c3c(O)cc(O)cc3O2)cc1OC1OC(C(=O)O)C(O)C(O)C1O (stereo not drawn) [M8, Hesperetin 3′-O-glucuronide]	1.8 ± 1.6 µg/mg creatinine

Same assay, conditions: urine, after consuming lemon extract, n = 16 volunteers

SMILES	Occurrence Urine LE (number of volunteers in whom the metabolite was detected)
O=C1C[C@@H](c2ccc(O)cc2)Oc2cc(O)cc(O)c21 [M15, Naringenin]	9
O=C1C[C@@H](c2ccc(O)c(O)c2)Oc2cc(O)cc(O)c21 [M12, Eriodictyol]	14
COc1ccc(C2CC(=O)c3c(O)cc(O)cc3O2)cc1OC1OC(C(=O)O)C(O)C(O)C1O (stereo not drawn) [M8, Hesperetin 3′-O-glucuronide]	16

Same assay, conditions: urine, after consuming orange extract, n = 16 volunteers

SMILES	Occurrence Urine OE (number of volunteers in whom the metabolite was detected)
O=C1C[C@@H](c2ccc(O)cc2)Oc2cc(O)cc(O)c21 [M15, Naringenin]	5
O=C1C[C@@H](c2ccc(O)c(O)c2)Oc2cc(O)cc(O)c21 [M12, Eriodictyol]	4
COc1ccc(C2CC(=O)c3c(O)cc(O)cc3O2)cc1OC1OC(C(=O)O)C(O)C(O)C1O (stereo not drawn) [M8, Hesperetin 3′-O-glucuronide]	16

Assay: Plasma metabolites and pharmacokinetics after single intake of lemon or orange extract (UPLC-ESI-QTOF-MS, non-compartmental analysis)
Assay type: in vivo, human
Conditions: after consuming lemon extract, n = 16 volunteers
Description: Secondary endpoints involved the evaluation of post-prandial changes in several biomarkers dealing with metabolism, inflammation, and oxidative stress after a high-fat-high-sugars meal. The design was a randomized pharmacokinetic, double-blind, crossover, single-dose trial consisted of 2 test-phases. The volunteers were randomly allocated into two groups using a computerized random number list. Each group consumed one of the citrus extracts by following a test-phase that lasted for 1 day for blood sampling and urine collection, a 2-week washout period between each test phase, and crossover before consuming the other extract. The volunteers were instructed to avoid the consumption of flavanone-containing products, from a list provided by the researchers, for 1 week before the study and during the wash-out phase (citrus fruit juices, tomatoes, tomato-based sauces (like ‘ketchup’), peppers, almonds, etc.). […] The 3 capsules provided a total of 1.95 g orange extract, containing 260 mg hesperidin, and 3.1 g lemon extract, containing 260 mg eriocitrin. […] Plasma samples were obtained by centrifugation of peripheral venous blood at 14,000× g for 15 min at 4 °C and immediately frozen at −80 °C. Glucose, total cholesterol, HDL-cholesterol, LDL-cholesterol, triglycerides, insulin, homeostatic model assessment insulin resistance (HOMA-IR), gamma-glutamyl transferase (GGT), and alanine aminotransferase (ALT) were determined as previously reported. […] A previously validated method for analyzing phenolic metabolites in biological samples, including flavanone-derived metabolites, was used. […] After centrifugation at 14,000× g for 10 min at 4 °C, the supernatant was evaporated in a speed vacuum concentrator. Finally, samples were re-suspended in 100 µL of methanol, filtered through a 0.22 µm cellulose filters before analysis by UPLC- ESI-QTOF-MS. A targeted screening strategy was applied to identify metabolites that could be present after consuming the citrus extracts. Twenty-eight possible compounds were browsed in all the samples. The list of compounds included the polyphenols present in the extracts, with particular focus on the flavanone rutinosides hesperidin and eriocitrin, their respective aglycones hesperetin, and eriodictyol, as well as their derived phase-II conjugates (glucuronides, sulfates, sulfoglucuronides, etc.). The exact mass of each proposed compound was extracted using an extraction window of 0.01 m/z. The metabolites hesperetin 7-O-glucuronide, hesperetin 3′-O-glucuronide, hesperetin 3-O-sulfate, naringenin 4′-O-glucuronide, and naringenin 7′-O-glucuronide were quantified with their corresponding standards. […] The parent phenolic compounds were quantified with their corresponding standards. In the case of some relevant conjugated metabolites, which standards were not available (eriodictyol and homoeriodictyol conjugates), their quantification was achieved by using relative response factors (RRFs) as previously described. Briefly, RRFs are useful to check the different responses of metabolites in the mass spectrometer vs. their UV signal. While the ionization response of free vs. conjugated forms is usually very different, their UV signal response is quite similar. To this purpose, we injected in a HPLC-DAD-ESI-Q (MS) the plasma samples (n = 5) with the highest concentrations of those conjugated metabolites. Concentrations were calculated by integrating the area from their corresponding UV peaks and compared with the UV peak area of a known concentration of their corresponding available parent compounds (eriodictyol and homoeriodictyol). The concentrations calculated were used to compare the MS response for each conjugated-aglycone pair. Statistical analyses were carried out using the SPSS Software, version 23.0 (SPSS Inc., Chicago, IL, USA). Data are expressed as mean ± SD. The empirical distribution of data with the normality assumption was tested with the Shapiro-Wilk test. […]

SMILES	Occurrence Plasma LE (number of volunteers in whom the metabolite was detected)
O=C1C[C@@H](c2ccc(O)cc2)Oc2cc(O)cc(O)c21 [M15, Naringenin]	6
O=C1C[C@@H](c2ccc(O)c(O)c2)Oc2cc(O)cc(O)c21 [M12, Eriodictyol]	16
COc1ccc(C2CC(=O)c3c(O)cc(O)cc3O2)cc1OC1OC(C(=O)O)C(O)C(O)C1O (stereo not drawn) [M8, Hesperetin 3′-O-glucuronide]	16

Same assay, conditions: after consuming orange extract, n = 16 volunteers

SMILES	Occurrence Plasma OE (number of volunteers in whom the metabolite was detected)
O=C1C[C@@H](c2ccc(O)cc2)Oc2cc(O)cc(O)c21 [M15, Naringenin]	2
O=C1C[C@@H](c2ccc(O)c(O)c2)Oc2cc(O)cc(O)c21 [M12, Eriodictyol]	0
COc1ccc(C2CC(=O)c3c(O)cc(O)cc3O2)cc1OC1OC(C(=O)O)C(O)C(O)C1O (stereo not drawn) [M8, Hesperetin 3′-O-glucuronide]	16

Same assay, conditions: after lemon extract, mean ± SD

SMILES	Tmax
COc1ccc(C2CC(=O)c3c(O)cc(O)cc3O2)cc1OC1OC(C(=O)O)C(O)C(O)C1O (stereo not drawn) [M8, Hesperetin 3′-O-glucuronide]	6.4 ± 2.0 h

Same assay, conditions: after orange (hesperidin) extract, mean ± SD

SMILES	Tmax
COc1ccc(C2CC(=O)c3c(O)cc(O)cc3O2)cc1OC1OC(C(=O)O)C(O)C(O)C1O (stereo not drawn) [M8, Hesperetin 3′-O-glucuronide]	8.4 ± 1.6 h

Same assay, conditions: human, oral, 1.95 g, after orange (hesperidin) extract, mean ± SD

SMILES	Cmax
COc1ccc(C2CC(=O)c3c(O)cc(O)cc3O2)cc1OC1OC(C(=O)O)C(O)C(O)C1O (stereo not drawn) [M8, Hesperetin 3′-O-glucuronide]	107 ± 128 nM

Same assay, conditions: human, oral, 1.95 g, after orange (hesperidin) extract, mean ± SD, read-out: AUC0-t

SMILES	AUC(0-t)
COc1ccc(C2CC(=O)c3c(O)cc(O)cc3O2)cc1OC1OC(C(=O)O)C(O)C(O)C1O (stereo not drawn) [M8, Hesperetin 3′-O-glucuronide]	0.409 ± 0.643 µM·h

Same assay, conditions: human, oral, 1.95 g, after orange (hesperidin) extract, mean ± SD, read-out: Tmax

SMILES	Tmax
COc1ccc(C2CC(=O)c3c(O)cc(O)cc3O2)cc1OC1OC(C(=O)O)C(O)C(O)C1O (stereo not drawn) [M8, Hesperetin 3′-O-glucuronide]	8.5 h

Same assay, conditions: human, oral, 3.1 g, after lemon extract, mean ± SD

SMILES	Cmax
COc1ccc(C2CC(=O)c3c(O)cc(O)cc3O2)cc1OC1OC(C(=O)O)C(O)C(O)C1O (stereo not drawn) [M8, Hesperetin 3′-O-glucuronide]	198 ± 104 nM

Same assay, conditions: human, oral, 3.1 g, after lemon extract, mean ± SD, read-out: AUC0-t

SMILES	AUC(0-t)
COc1ccc(C2CC(=O)c3c(O)cc(O)cc3O2)cc1OC1OC(C(=O)O)C(O)C(O)C1O (stereo not drawn) [M8, Hesperetin 3′-O-glucuronide]	0.803 ± 0.569 µM·h

Same assay, conditions: human, oral, 3.1 g, after lemon extract, mean ± SD, read-out: Tmax

SMILES	Tmax
COc1ccc(C2CC(=O)c3c(O)cc(O)cc3O2)cc1OC1OC(C(=O)O)C(O)C(O)C1O (stereo not drawn) [M8, Hesperetin 3′-O-glucuronide]	6.5 h
